Laboratory results: publication PMC5893557, “Small tumor necrosis factor receptor biologics inhibit the tumor necrosis factor-p38 signalling axis and inflammation” (Nature Communications, 2018)
Like-named read-outs stand apart in the source and are kept apart here. Residues, ends and D or L forms follow the SMILES beside them. No end group written: not given here.

What was measured:
human neutrophils = experiment: TNF70–80-induced lucigenin-dependent chemiluminescence (superoxide) in neutrophils; format: cell-based
Method: (§1) Neutrophil superoxide production was measured by an indirect assay involving the reduction of the lucigenin, (9, 9′-bis N-methyl-acridinium nitrate) (Sigma-Aldrich, Castle Hill, NSW, Australia) and measuring the light output by lucigenin-dependant chemiluminescence. […] After incubation, 500 μl of lucigenin (250 μM, final) was added and the final volume was adjusted to 1 ml. The cells were placed in luminometer (Autolumat Plus Model LB 953, Berthold Technologies, Bundoora, VIC, Australia) and the resulting chemiluminescence (in relative light units, RLU) measured. The results are expressed as maximal/peak rate of chemiluminescence produced unless specified otherwise. CR3 expression on neutrophils was measured by flow cytometry using anti-CD11b antibodies. […] After treatment, 2 μl of PE-labelled mouse IgG2a isotype control (Clone X39) or PE-labelled monoclonal anti-CD11b antibody (Clone D12) (both from BD Biosciences, North Ryde, NSW, Australia) was added to neutrophils in 200 μl of Isoton II (BD Biosciences) supplemented with 0.1% (w/v) BSA. After 30 min the cells were washed, fixed with formaldehyde (0.1%) and analysed on a FACScan (BD Biosciences, North Ryde, NSW, Australia). Cytokine (IL-1β and IL-8) mRNA productions were measured by quantitative RT-PCR. Briefly, total RNA was extracted from 1 × 10^6 neutrophils using the TRIzol reagent (Life Technologies Australia Pty, Mulgrave, VIC, Australia) according to the manufacturer’s instructions. RNA was converted to cDNA using iScript cDNA synthesis kit (Bio-rad, Hercules, CA, USA).

[1] = molecular target: TNF-induced neutrophil CL production (Homo sapiens, UniProt P01375); settings: read-out: IC50, inhibition of TNF-induced CL production; TNF (1 ng/ml) pre-treated with peptide for 30 min, human neutrophils, lucigenin chemiluminescence
Method: as §1

[2] = system: TNF-rich medium-induced superoxide production in neutrophils; experiment: TNF-rich medium (RM)-induced chemiluminescence in neutrophils; format: cell-based, human
Method: Neutrophil superoxide production was measured by an indirect assay involving the reduction of the lucigenin, (9, 9′-bis N-methyl-acridinium nitrate) (Sigma-Aldrich, Castle Hill, NSW, Australia) and measuring the light output by lucigenin-dependant chemiluminescence[37]. […] After incubation, 500 μl of lucigenin (250 μM, final) was added and the final volume was adjusted to 1 ml. The cells were placed in luminometer (Autolumat Plus Model LB 953, Berthold Technologies, Bundoora, VIC, Australia) and the resulting chemiluminescence (in relative light units, RLU) measured. The results are expressed as maximal/peak rate of chemiluminescence produced unless specified otherwise.

[3] = system: CD11b expression in neutrophils; experiment: TNF-induced CD11b (CR3) expression in neutrophils, flow cytometry; format: cell-based, human; settings: TNF (5 ng/ml) pre-treated 20 min with 200 μM peptide unless otherwise specified
Method: as §1, with “Briefly, total RNA was extracted from 1 × 10^6 neutrophils using the TRIzol reagent (Life Technologies Australia Pty, Mulgrave, VIC, Australia) according to the manufacturer’s instructions. RNA was converted to cDNA using iScript cDNA synthesis kit (Bio-rad, Hercules, CA, USA).” left out

TNF = experiment: Solid phase binding of TNF to coated TNFRI peptide; parameters: species or system human; settings: peptide-coated plates, 50 U TNF, biotinylated anti-TNF antibody detection
Method: Depending on the experiment, microtitre plates were coated with 100 μl/well of either 3 μg/ml TNFRI198–211 in MilliQ water or TNFRI206–211 or the corresponding scrambled peptide in carbonate-bicarbonate buffer (pH 9.6) overnight at 4 °C and blocked with 1% BSA and 0.05% Tween-20 in PBS for 1 h at 4 °C. In the TNFRI198–211-coated plates, various concentrations of biotinylated TNF70–80 or control peptide were added to triplicate wells and incubated for 3 h at 4 °C. In the TNFRI206–211/scrambled peptide-coated plates, 50 U of TNF was added to triplicate wells, followed by washing with wash buffer (PBS/0.05% Tween-20) and then incubation with 50 μl of 1.5 μg/ml biotinylated monoclonal anti-TNF antibody (clone 2TNF-H33, ThermoScientific, Waltham, MA, USA). The wells from all plates were washed four times with wash buffer, then incubated with 100 μl/well of poly-horseradish peroxidase streptavidin conjugate (1/6000 dilution in 1% BSA and 0.05% Tween-20 in PBS) (ThermoScientific, Waltham, MA, USA) for 45 min at 4 °C. Wells were washed four times with wash buffer and bound enzyme detected by the addition of TMB substrate (Sigma-Aldrich, Castle Hill, NSW, Australia). Absorbance was measured using dual filter at 570/450 nm on a Dynatech MR700 Plate Reader (Guernsey, Channel Islands).

[4] = system: p38 activity in 70Z/3 pre-B cells; experiment: p38 activity in 70Z/3 pre-B cells, mock- or TNFRI (WT/mutant)-transfected; format: cell-based, mouse
Method: The study was approved by the CYWHS Human Ethics Committee (project number HREC 595/12/10). Neutrophils were prepared from peripheral blood of healthy donors, who had given informed consent, by a rapid single-step technique. Blood was layered on to Hypaque-Ficoll (Pharmacia Biotech., Uppsala, Sweden), d = 1.114, and centrifuged at 600 × g for 20–30 min. After centrifugation, the leukocytes resolved into two bands and the neutrophils were harvested from the second band. The preparations of neutrophils were routinely of >99% viability and >98% purity. These were either used as cells in suspension or as adhered neutrophils by adding the cells to plasma-coated plates as previously described. The 70Z/3 pre-B cell line, kindly provided by Dr. W. Langdon, University of Western Australia, Perth, Australia, are mouse pre-B lymphocytes which lack binding sites for human TNF and are non-responsive to the cytokine[18],[19]. The cells were maintained in RPMI 1640 medium with 4.5 g/L glucose, 2 mM L-glutamine, […] 2-mercaptoethanol and 10% FCS in an atmosphere of 95% air and 5% CO2. The monocytic cell line, MonoMac 6 was kindly provided by Dr. H.W.L. Ziegler-Heitbrock (Institute of Clinical Chemistry and Pathobiochemistry, Klinikum rechts der Isar, Technische Universitat, Munchen, Germany) and maintained in RPMI 1640 supplemented with 10% heat-inactivated foetal calf serum, 1 mM pyruvate, glutamine and antibiotics. A mouse fibroblastic fibrosarcoma cell line WEHI-164, clone 13 (from the ATCC) was obtained from Dr. Geeta Chauhdri (John Curtain School of Medical Research, Australian National University, Canberra, Australia). The cells were maintained in RPMI-1640 medium as above and the cells were detached with 0.25% trypsin EDTA. HEK 293T cells were maintained in DMEM, supplemented with 10% foetal calf serum. […]
(§2) p38 activity was determined, after immunoprecipitation, as described using myelin basic protein (MPB) as a substrate for the kinase in the presence of ^32P-ATP[35]. […]

p38 MAPK = experiment: p38 activation in neutrophils treated with TNF70–80; format: cell-based, human; settings: neutrophils incubated 15 min with peptide
Method: (§3) The study was approved by the CYWHS Human Ethics Committee (project number HREC 595/12/10). Neutrophils were prepared from peripheral blood of healthy donors, who had given informed consent, by a rapid single-step technique. Blood was layered on to Hypaque-Ficoll (Pharmacia Biotech., Uppsala, Sweden), d = 1.114, and centrifuged at 600 × g for 20–30 min. After centrifugation, the leukocytes resolved into two bands and the neutrophils were harvested from the second band. The preparations of neutrophils were routinely of >99% viability and >98% purity. These were either used as cells in suspension or as adhered neutrophils by adding the cells to plasma-coated plates as previously described. The 70Z/3 pre-B cell line, kindly provided by Dr. W. Langdon, University of Western Australia, Perth, Australia, are mouse pre-B lymphocytes which lack binding sites for human TNF and are non-responsive to the cytokine[18],[19]. The cells were maintained in RPMI 1640 medium with 4.5 g/L glucose, 2 mM L-glutamine, […] 2-mercaptoethanol and 10% FCS in an atmosphere of 95% air and 5% CO2. […]
as §2

macrophage = settings: ability to stimulate nitric oxide production in macrophage; cited from earlier work
Excerpt: The modification extended the serum half-life ...

[5] = system: p38 activity in HEK 293T cells; experiment: p38 activity in HEK 293T cells stably transfected with TRAF2, ∆TRAF2 or empty vector; format: cell-based; settings: 10 μM
Method: as §3, §2

[6] = Method: TNF70–80 and its control ([…]) were synthesised by Auspep Pty Ltd, (Tullamarine, VIC, Australia) and Genscript Biotech (Piscataway, NJ, USA). […] The sequence from the natural TNF-α was modified by substitution of isoleucine for leucine at residue 79. […] Fresh dilutions of the peptide were prepared daily in HBSS or HBSS with 1% BSA. The His-tagged M4 (HM4) ∆HM4 (LKPGTT) was purchased from Auspep Pty Ltd (Tullamarine, VIC, Australia). […] Peptides were stored at −20 °C and solutions were made in HBSS or RPMI prior to use.
[7] = system: Ross River virus (RRV)-infected mice; settings: cited from earlier work
Excerpt: Given that the TNFR peptide sequence covers the minimal region that is required for TNF to activate p38, it is likely the peptide alters the dynamics of the TNF–TNFR interaction—allowing not only TNF binding to TNFRI, but also the activation of the other signalling molecules that the receptor normally activates. This implies that other regions of TNFRI mediate the activation of the other signalli ...

Chain of TNF-induced neutrophil CL production (P01375 whole entry): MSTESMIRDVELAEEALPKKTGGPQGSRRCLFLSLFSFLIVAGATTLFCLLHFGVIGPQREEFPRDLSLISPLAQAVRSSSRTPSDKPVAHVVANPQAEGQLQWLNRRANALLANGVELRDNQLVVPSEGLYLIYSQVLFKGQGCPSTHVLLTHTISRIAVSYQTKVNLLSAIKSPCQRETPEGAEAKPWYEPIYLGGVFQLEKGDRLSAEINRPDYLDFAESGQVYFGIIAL
Chain of TNF-induced neutrophil CL production (P19438 30-455 partner): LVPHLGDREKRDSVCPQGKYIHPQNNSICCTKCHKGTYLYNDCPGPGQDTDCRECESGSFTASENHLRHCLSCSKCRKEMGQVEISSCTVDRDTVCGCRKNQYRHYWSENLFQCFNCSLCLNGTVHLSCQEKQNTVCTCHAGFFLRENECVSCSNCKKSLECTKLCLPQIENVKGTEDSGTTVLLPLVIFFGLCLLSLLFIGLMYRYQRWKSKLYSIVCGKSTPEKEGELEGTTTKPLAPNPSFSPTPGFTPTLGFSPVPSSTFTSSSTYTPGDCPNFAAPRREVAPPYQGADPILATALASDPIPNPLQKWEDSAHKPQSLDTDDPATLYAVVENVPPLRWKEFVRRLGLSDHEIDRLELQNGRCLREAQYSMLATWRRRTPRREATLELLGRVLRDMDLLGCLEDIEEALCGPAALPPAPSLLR

## C[S+]([O-])c1ccc(-c2nc(-c3ccncc3)c(-c3ccc(F)cc3)[nH]2)cc1 (centres unmarked) [SB203580, reference compound]
Human neutrophils; neutrophils pre-incubated with inhibitor for 10 min before TNF70–80
  effect on TNF70–80-induced respiratory burst response: inhibited

## C[C@@H](O)[C@H](NC(=O)[C@@H](NC(=O)CN)[C@@H](C)O)C(=O)O [TNFRI209–211] (H-Gly-Thr-Thr-OH)
[1]
  IC50: 123 µM
[2]
  IC50: 146 µM

## EDSGTT [TNFRI206–211]
[1]
  IC50: 171 µM
[2]; TNF-RM (conditioned medium of Staphylococcus aureus-stimulated mononuclear leukocytes, 1:10 in HBSS) treated with peptide, n = 3, read-out: IC50, inhibition of neutrophil response to TNF-rich medium
  IC50: 216 µM

## GEDTST [scrambled control of TNFRI206–211]
[3]
  effect on TNF-induced CD11b expression in neutrophils: Lack of effect
TNF
  binding to TNF, solid phase assay: did not bind

## LKPGTT [∆HM4]
Human neutrophils; four experiments
  effect on TNF70–80-stimulated CL production in human neutrophils: dose-dependent suppression

## PSTHVLITHTI [TNF70–80]
Human neutrophils; neutrophils, chemiluminescence over 45 min
  superoxide production, lucigenin-dependent chemiluminescence: stimulated the production of superoxide in a similar manner to TNF
[4]; 70Z/3 cells, M4 TNFRI mutant, 10 μM, p = 0.11, n = 3
  p38 activity effect in M4 TNFRI mutant-transfected cells: retained, albeit appearing reduced
[4]; WT TNFRI- and M1 TNFR1-transfected 70Z/3 cells, 10 μM, 5 min, three experiments
  increase in p38 activity: ~ 2.5 fold
[4]; untransfected (mock) cells
  p38 activity in 70Z/3 pre-B cells lacking TNFRs: failed to stimulate the activity of p38
p38 MAPK
  p38 MAPK activation in neutrophils: activation of p38 MAPK
macrophage
  concentration that equates to 1000 U/ml of TNF: 5.0 µg/mL
[5]
  p38 activity in cells transfected with dominant-negative TRAF2 (∆TRAF2): but not in those transfected with ∆TRAF2
  p38 activity in cells transfected with wild-type TRAF2 or an empty vector: enhanced the activity of p38
[6]; after substitution of isoleucine for leucine at residue 79, no method or species printed
  serum half-life: > 1.5 h
[6]; after substitution of isoleucine for leucine at residue 79, relative to natural sequence
  water solubility: increased

## QIENVKGTEDSGTT [TNFRI198–211]
[1]
  IC50: 50 µM

## etanercept
[7]
  outcome in RRV-infected mice versus untreated RRV-infected mice: decreased weight gain, higher viral titre in muscle, joints and blood, associated with a greater degree of tissue damage and inflammatory cell recruitment
